# Data from a melting point compilation (Tetko et al.).
row,Structure (SMILES),melting point
1,COC(=O)Cn1ncc2c(Cl)ncnc21,66 to 68 °C
2,Nc1cccnc1-n1cccn1,65 to 67 °C
3,N#Cc1ccc(F)c(F)c1N,92 to 94 °C
4,CC1COCCN1c1ccc(N)cc1 (stereo not drawn),89 to 91 °C
5,NC(=O)c1cccc(OCC(=O)O)c1,206 to 208 °C
6,O=C(O)CC1C=CS(=O)(=O)C1 (stereo not drawn),81 to 83 °C
7,O=C(O)c1cc(=O)c(OCc2ccccc2)co1,179 to 181 °C
8,O=C(Nc1cccc2cnccc12)OCC(F)(F)F,181 to 183 °C
9,N#Cc1cccc(NC(=O)c2cccc(N)c2)c1,163 to 165 °C
10,Nc1ccccc1NS(=O)(=O)c1ccccc1,169 to 171 °C
11,COC(=O)CN1Cc2ccccc2C1=O,114 to 116 °C
12,Cn1ncc(C(=O)O)c1C1CC1,104 to 106 °C
13,NS(=O)(=O)c1ccccc1O,135 to 137 °C
14,Cc1nc2ccccc2c(=O)n1-c1ccc(C(=O)O)cc1,220 to 222 °C
15,CCOC(=O)c1sc2nc(CN3CCOCC3)nc(Cl)c2c1C,110 to 112 °C
16,NC(CN1CCCC1=O)c1cccc(C(F)(F)F)c1 (stereo not drawn),76 to 78 °C
17,O=C1Nc2c(cccc2C(F)(F)F)C1=O,187 to 189 °C
18,O=Cc1cccc(NC(=O)c2ccc(Cl)cc2)c1,129 to 131 °C
19,CN1CCN(C(=O)Cc2cccc(N)c2)CC1,138 to 140 °C
20,O=C(O)CCCOc1ccc(Br)cc1,130 to 132 °C

row,Structure (SMILES),melting point
1,Cc1nnc(S)o1,239 to 241 °C
2,Cc1nc(N)n[nH]1,142 to 144 °C
3,CCCOc1ccc(C(F)(F)F)cc1NC(=O)CCl,73 to 75 °C
4,COCCOc1ccc(NC(=O)OCC(F)(F)F)cn1,86 to 88 °C
5,NS(=O)(=O)C=Cc1ccc(F)cc1,148 to 150 °C
6,CC1(C)CNc2ccccc2S1,41 to 43 °C
7,O=C(O)C1CC(=O)N(C2CCCCCC2)C1 (stereo not drawn),165 to 167 °C
8,NC(=NO)C1CCCCC1,89 to 91 °C
9,COCCNC(=S)NN,85 to 87 °C
10,O=C(O)c1ccc(N2C(=O)CSC2=S)cc1,281 to 283 °C
11,Nc1nc2cc(F)c(F)cc2s1,171 to 173 °C
12,Nc1cc(S(=O)(=O)N2CCOCC2)ccc1Cl,177 to 179 °C
13,CCN(C(=O)OC(C)(C)C)C(C#N)c1cccnc1 (stereo not drawn),66 to 68 °C
14,O=C(O)CCNS(=O)(=O)C=Cc1ccccc1,119 to 123 °C
15,O=C(O)C1Cc2nc[nH]c2C(c2ccccc2)N1 (stereo not drawn),209 to 211 °C
16,O=C(c1ccc(S(=O)(=O)Cl)cc1F)N1CCCC1,79 to 81 °C
17,Nc1sc2c(c1C(=O)c1ccccc1)CCCC2,123 to 127 °C
18,CC(NC(=O)CCn1cncn1)C(=O)O (stereo not drawn),254 to 256 °C
19,CCN(c1ccccc1)S(=O)(=O)c1ccc(Cl)nc1,81 to 83 °C
20,COc1cc(C(=O)O)cc2c1OCCO2,203 to 205 °C

row,Structure (SMILES),melting point
1,CSc1cccc(Cl)c1C#N,114 to 116 °C
2,NC(=O)c1ccn(-c2ccc(N)cc2)n1,230 to 232 °C
3,NS(=O)(=O)c1ccc(C(=O)O)s1,229 to 231 °C
4,NCC(=O)Nc1cccc(F)c1,82 to 84 °C
5,CC1CNC(=O)CC(C)C1 (stereo not drawn),122 to 124 °C
6,NCCc1ccccc1O,107 to 109 °C
7,N#Cc1cc2c([nH]c1=O)CCN(CCc1ccccc1)C2,219 to 221 °C
8,CC(C)c1ccc(C2(C(=O)O)CCC2)cc1,119 to 121 °C
9,COc1cc(Br)c(S(=O)(=O)Cl)cc1Cl,89 to 91 °C
10,CCCCS(N)(=O)=O,43 to 45 °C
11,CC(C)C(=O)Nc1ccc(N)cc1,74 to 76 °C
12,Clc1ccnc2[nH]ccc12,176 to 181 °C
13,COc1ccc(CC(N)c2ccc(OC)cc2)cc1 (stereo not drawn),175 to 177 °C
14,COCCCn1cc(C(=O)c2cc(F)ccc2O)cc(C#N)c1=O,126 to 128 °C
15,O=C1C=CC(=O)N1C1CCOCC1,169 to 171 °C
16,NNC(=O)c1ccoc1,128 to 130 °C
17,Cc1ccc(S(=O)(=O)OCC2CCN(C(=O)OC(C)(C)C)CC2)cc1,72 to 74 °C
18,c1c[nH]c(C2CCCN2)c1 (stereo not drawn),75 to 77 °C
19,NC(=O)CC(NS(=O)(=O)c1ccccc1F)C(=O)O (stereo not drawn),165 to 167 °C

# Now from value to compound:
row,melting point,Structure (SMILES)
1,120 to 122 °C,N#Cc1cnc2c(OC(F)F)cccc2c1Cl
2,215 to 217 °C,CC1(c2c(F)cccc2F)NC(=O)NC1=O (stereo not drawn)
3,60 to 62 °C,COc1ccc(C=O)c(Cl)c1
4,139 to 141 °C,O=C(O)c1cn(-c2cccc(Cl)c2F)nn1
5,195 to 197 °C,Cc1cc(C)c2c(=O)[nH]sc2n1
6,124 to 126 °C,CCOc1ccc(S(=O)(=O)N(C)C)cc1N
7,36 to 38 °C,Cc1ccc(S(=O)(=O)Cl)cc1C
8,154 to 156 °C,O=C1OCCN1c1ccc([N+](=O)[O-])cc1
9,120 to 122 °C,Cc1ccc(OC(C)C(=O)O)c(Br)c1 (stereo not drawn)
10,99 to 101 °C,Cc1ccc(-n2nc(N)cc2C)cc1
11,227 to 229 °C,O=c1[nH]c(CCl)nc2scc(-c3ccccc3)c12
12,144 to 146 °C,CC(C)(C)OC(=O)NCc1ccc(C(=O)O)c(C2CC2)n1
13,264 to 266 °C,O=C1Nc2cc(I)ccc2C1=O
14,100 to 102 °C,Cc1noc(-c2ccc(C)c([N+](=O)[O-])c2)n1
15,103 to 105 °C,CC(=O)c1ccc(S(C)(=O)=O)c(F)c1
16,91 to 93 °C,COc1ccc(OC)c(CNCCO)c1
17,56 to 58 °C,COC(=O)C1(C)CCc2ccccc2C1=O (stereo not drawn)
18,134 to 136 °C,Cc1nc(Cl)c(NN)nc1C
19,139 to 141 °C,Cc1ccc2oc(S)nc2n1
20,116 to 118 °C,Cc1ccc(Oc2ncccc2C#N)c(Br)c1
21,128 to 130 °C,O=C(NCCO)c1cncc(Br)c1
22,129 to 131 °C,CCOC(=O)c1cnn2c1nc(Cl)c1ccccc12

row,melting point,Structure (SMILES)
1,275 to 277 °C,Cc1ccc(C(=O)O)cc1S(N)(=O)=O
2,74 to 76 °C,COC(=O)c1cc(Oc2ccc(Cl)cc2)ccc1N
3,81 to 83 °C,COc1ccc(SCCC(=O)O)cc1
4,276 to 278 °C,CS(=O)(=O)Cc1c(C(=O)O)sc2ccccc12
5,109 to 111 °C,CCc1ccnc(C(=O)O)c1
6,165 to 167 °C,Cc1ccsc1-c1nsc(N)n1
7,117 to 119 °C,O=C(O)c1cc(F)ccc1-c1ccccc1
8,79 to 81 °C,CCOC(=O)Cc1nc2cc(Cl)ccc2s1
9,154 to 156 °C,O=[N+]([O-])c1cc(S(=O)(=O)N2CCOCC2)ccc1N1CCOCC1
10,93 to 95 °C,CNC(=O)c1ccc(Cl)cc1N
11,166 to 168 °C,O=Cc1cnc2ccnn2c1
12,47 to 49 °C,Cc1ccccc1C(C)CC(=O)O (stereo not drawn)
13,290 to 292 °C,Sc1nnc(-c2ccncc2)n1-c1ccccc1
14,123 to 125 °C,O=C(CCl)c1nnc(-c2ccccc2)o1
15,157 to 159 °C,Cc1cc(C(=O)O)nn1-c1ccccn1
16,219 to 221 °C,O=C(O)c1ccc(Cc2nnc[nH]2)cc1
17,345 to 347 °C,O=c1[nH]c(S)nc2ccc(F)cc12
18,177 to 179 °C,CCc1ccc(-c2nn(-c3ccccc3C)cc2C(=O)O)cc1
19,203 to 205 °C,Cc1cc(C(=O)O)ccc1NS(=O)(=O)C(F)(F)F
20,169 to 171 °C,CCn1c(N)nc2cc(Cl)ccc21
21,102 to 104 °C,Cc1cc(N)n(-c2ccccn2)n1
22,95 to 97 °C,COc1c([N+](=O)[O-])ccc(C=O)c1OC(F)F
